Measurements taken from patent US20250057791A1, “PROTECTION AGAINST ARTHROPOD PARASITES WITH PURINERGIC RECEPTOR (OPR) ANTAGONISTS” (priority 2021, published 2025).
Values joined by “and” are separate entries in the source; they are usually repeats but may differ in a detail not shown here. Equal values may be shown once.

Experiments:
A. gambiae = assay: Membrane feeding assay, A. gambiae; assay type: in vivo, Anopheles gambiae; details: for ID95 in μM (±s.e.m.): feeding on 20 μM ATP in the feeding solution; for effect on feeding on solution containing ATP, in words: 20 μM ATP, CPT at 10 μM
Description: Experiments with A. gambiae and A. stephensi were made in a climate chamber at 28° C. and 80% RH during the last 6 hours of scotophase. As a sugar meal can interfere with the blood meal by reducing the number of females that feed, the sucrose solution supplied in rearing cages to mosquitoes employed for feeding experiments was reduced to 5%. […] The 5% sucrose solution was presented to mosquitoes from emergence on four 1 cm diam. cotton dental rolls (Hartmann A G, Neuhausen, Switzerland) inserted in 10 ml upturned glass vials placed in holes at each corner of the rearing cage ceiling. Cotton rolls were turned daily in vials and renewed every two days. Mosquitoes were not fed blood and were deprived of sucrose 17 to 20 hours before experiments. Thirty min before a feeding experiment, between 10-25, 6-day-old females that responded to activation by human breath were removed with a mouth aspirator from the rearing cage wall and placed in polystyrol cylinders with the floor cut out (10 cm dm×15 cm high; Semadeni, Ostermundigen, Switzerland) that served as feeding cages. Each cage was covered with mosquito netting at one end and a soft polyurethane lid at the other.
Mosquitoes were fed for 30 min using a feeding system (Hemotek®, Hemotek Ltd, Blackburn, UK) consisting of 3.5 ml stainless steel reservoirs 37 mm in diameter covered with a 60-90 μm thick silicone-impregnated membrane (Kröber and Guerin, 2007 in “Feeding assays for hard ticks”, Trends in parasitology 23, 445-449; doi 10.1016/j.pt.2007.07.010). Feeding reservoirs reached a temperature of 37° C. within 10 min and were placed on the netting of feeding cages. Mosquitoes were activated using a 200 ms pulse of pure CO2 (volume 6.25 ml) from a pressurised cylinder (Carbagas, Switzerland) using a solenoid valve that caused the CO2 level in the feeding cage to rise to at least 1,500 ppm. Between 3 and 4 sets of 10 feeding cages held in a custom-built Ertacetal® POM frame were tested per day, depending of the number of female mosquitoes available from the colony.
All compounds were tested in a mosquito feeding solution (FS) consisting of 25 mM dextrose, 25 mM NaCl buffered with 8.93 mM NaHCO3 adjusted to pH 7.4. Feeding responses of A. gambiae and A. stephensi to ATP as a function of dose were tested with between 7 to 10 feeding cages per dose. Each feeding experiment with an antagonist systematically included a treatment containing the FS as negative control along with a treatment containing the FS with […] added as positive control for A. gambiae and with […] added as positive control for A. stephensi. These positive and negative controls permitted to monitor any effect of experimental day on feeding responses as a function of dose for antagonists that were recorded over several days. […] Four to 10 cages each with 10 to 29 mosquitoes were tested per antagonist dose. […] The number of feeding cages used to test other compounds and their mixtures as feeding stimulants or as feeding inhibitors is listed on Table 6. The percentage of fed mosquitoes was estimated by visual inspection of abdominal distention that is indicative of engorgement.
Pairwise comparisons of A. gambiae electrophysiological (EP) responses to ATP and adenosine alone and combined with a given dose of PR antagonist, EP responses to ATP alone and combined with a given dose of a metal modulator, and EP responses to ATP prior to and after exposure of a sensillum to a given dose of a PR antagonist were made with a one-tailed Wilcoxon signed-rank test for data showing a non-normal distribution, with a paired Student's t-test for normally distributed data showing homogeneous variance and with a Welch's t-test for normally distributed data showing non-homogeneous variance. […]

Glossina pallidipes = assay: Membrane feeding assay, tsetse fly Glossina pallidipes; assay type: in vivo; details: for effect on feeding, compound in solution containing ATP, in words: doses as in Table 10
Description: Flies of both species were transferred 30 min before feeding experiments to feeding cages as used for mosquitoes at 24° C., 80% RH in an environmental cabinet. Teneral tsetse were fed at 2 to 4 days old during the photophase with between 7 and 13 flies per feeding cage, covered with a black cloth. Horn flies were tested at 1 and 2 days old in the photophase with between 6 and 21 flies per cage. Both fly species were fed using small Hemotek feeding reservoirs (29 mm diameter, 1 ml) equipped with a membrane as for mosquitoes. Horn flies were fed for 15 min with feeding reservoirs placed on the cage. For tsetse, cages were closed with black mosquito netting at the bottom to allow flies to feed through the membrane placed under the cage. Feeding time (1.5 to 6 min) for tsetse was adjusted as a function of age to achieve at least 30% feeding on the positive control included in each feeding experiment. The positive control for both fly species contained 150 mM NaCl, 8.9 mM NaHCO3 with 100 μM ATP added, hereafter termed fly feeding solution (FFS). The pH of the FFS was adjusted as for ticks. The effect of TMP on feeding by G. pallidipes was also tested at 16 μg TMP/cm^2 dissolved in 140 μl hexane and applied homogeneously to the membrane surface using a micropipette. Hexane was used to treat the membrane with TMP to avoid the test compound being dispersed by fly wing-fanning. Flies of both species were activated just prior to feeding on a treatment by exhalation into the cage. Tsetse that had fed were identified with swollen abdomens and counted at the end of a feeding experiment. Since it was difficult to ascertain by eye whether a horn fly had fed on a treatment, 10 μl/ml of blue food colorant (No. 4866908, Trawosa AG, St. Gallen, Switzerland) was added. This facilitated the detection of ingested liquid when the abdomen of flies, killed by freezing, was squashed onto filter paper. Only experiments in which the feeding rate by flies was >30% on the positive control were included in analyses.
Uptake of TFS containing PR antagonists, converted to mg/h for hard ticks and weight gains in mg/25 min for soft ticks, was compared to TFS uptake in the corresponding positive controls. […] For tsetse and horn flies the percentage flies that fed per antagonist treatment served as the criterion for inhibition of feeding. As horn fly sexes emerged within 24 h, both sexes were assumed to show the same degree of appetence. In tsetse, males emerged first so a gender-related appetence could not be excluded. No sex-related feeding differences in feeding were found for testse (GLM, P>0.05) so data for the sexes were pooled. Comparisons of percentage fed flies were made using a Bayesian GLM—the most appropriate model considering the zero-inflated distributions shown by the data sets. […] P-values were corrected using Holm's FWEC in multiple comparisons of data for each tick and fly species.

## Cc1ccc(C(=O)Nc2ccc(S(=O)(=O)O)c3cc(S(=O)(=O)O)cc(S(=O)(=O)O)c23)cc1NC(=O)c1cccc(NC(=O)Nc2cccc(C(=O)Nc3cc(C(=O)Nc4ccc(S(=O)(=O)O)c5cc(S(=O)(=O)O)cc(S(=O)(=O)O)c45)ccc3C)c2)c1 [Suramin]
A. gambiae; antagonist 1 μM + 20 μM ATP
  % fed mosquitoes (mean ± s.e.m.), ATP + antagonist: 34.86%
A. gambiae
  ID95 in μM (±s.e.m.): 1.36 µM
Glossina pallidipes; FFS + 50 μM
  % Fed, Median: 45.5%

## Nc1ncnc2c1ncn2[C@@H]1O[C@H](COP(=O)(O)OP(=O)(O)OP(=O)(O)O)[C@@H](O)[C@H]1O [ATP, Adenosine 5′-triphosphate]
A. gambiae; 20 μM ATP alone, positive control of the antagonist
  % fed mosquitoes (mean ± s.e.m.), ATP [20 μM]: 66.12% and 65.96% and 64.49% and 69.12% and 69.68% and 64.2% and 70.2% and 67.6%
A. gambiae; 20 μM in feeding solution
  % Engorged mosquitoes: 67.5 ± 2.1%
A. gambiae; 22.5 μM ATP
  % feeding at the ED95: 68.15%
A. gambiae; 45 μM ATP
  % mosquitoes fed at the asymptote: 70.25%
A. gambiae; dose dependent feeding
  asymptote dose of feeding response: 45 µM
A. gambiae; dose dependent feeding on feeding solution
  ED95, feeding stimulant: 22500 nM

## Cc1nc(C)c(C)nc1C [TMP, 2,3,5,6-tetramethylpyrazine]
A. gambiae; 7.5 μM TMP + 20 μM ATP + 200 μM Adenosine
  % Engorged mosquitoes: 36.7 ± 6.0%
A. gambiae
  effect on feeding on solution containing ATP, in words: inhibited feeding
  ID95 in μM (±s.e.m.): 1.28 µM
A. gambiae; antagonist 10 nM + 20 μM ATP
  % fed mosquitoes (mean ± s.e.m.), ATP + antagonist: 50.47%
Glossina pallidipes; FFS + 16 μg/cm^2 on membrane
  % Fed, Median: 40%
Glossina pallidipes; FFS + 150 μM
  % Fed, Median: 66.7%
Glossina pallidipes; dose as in Table 10
  effect on feeding, compound applied onto the feeding membrane, in words: significantly inhibited feeding
Glossina pallidipes
  effect on feeding, compound in solution containing ATP, in words: failed to inhibit feeding

## O=C(O)c1cc(C(=O)O)c(C(=O)N(Cc2cccc(Oc3ccccc3)c2)[C@H]2CCCc3ccccc32)cc1C(=O)O [A-317491, 5-[(3-phenoxyphenyl)methyl-[(1S)-1,2,3,4-tetrahydronaphthalen-1-yl]carbamoyl]benzene-1,2,4-tricarboxylic acid]
A. gambiae
  effect on feeding on solution containing ATP, in words: inhibited feeding
A. gambiae; antagonist 1 nM + 20 μM ATP
  % fed mosquitoes (mean ± s.e.m.), ATP + antagonist: 43.71%
Glossina pallidipes; FFS + 1 μM
  % Fed, Median: 22.5%
Glossina pallidipes
  effect on feeding, compound in solution containing ATP, in words: inhibited feeding
